Test results taken from article PMC5175396, “Cytotoxicity of Plumbagin, Rapanone and 12 other naturally occurring Quinones from Kenyan Flora towards human carcinoma cells” (BMC Pharmacology & Toxicology, 2016).

Experiments:
[1] = test system: SPC212 human mesothelioma cell line; test: Neutral red (NR) uptake cytotoxicity assay, SPC212; assay type: cell-based; conditions: for selectivity index SPC212: IC50 in CRL2120 normal fibroblasts divided by IC50 in SPC212
Text: (§1) Six human cancer cell lines and one normal cell line were used in this study. They included A549 human non-small cell lung cancer (NSCLC) cell line, obtained from the Institute for Fermentation, Osaka (IFO, Japan) and provided by Prof. Dr. Tansu Koparal (Anadolu University, Eskisehir, Turkey), SPC212 human mesothelioma cell line obtained from American Type Culture Collection (ATCC) and provided by Dr. Asuman Demiroğlu Zergeroğlu (Gebze Technical University, Kocaeli, Turkey), DLD-1 colorectal adenocarcinoma cell lines obtained from ATCC (CCL-221), Caco2 colorectal adenocarcinoma cells (ATCC, HTB-37) obtained from the ŞAP Institute of Turkey (Ankara), HepG2 hepatocarcinoma cells (ATCC, HB-8065) and MCF-7 breast adenocarcinoma cells (ATCC, HTB-22) were provided by Prof. Dr. Tansu Koparal (Anadolu University, Eskisehir, Turkey). The normal CRL2120 human skin fibroblasts were obtained from ATCC [CCD1094Sk (ATCC, CRL-2120)]. The cells were maintained as a monolayer in DMEM medium (Sigma-aldrich, Munich, Germany) medium supplemented with 10% fetal calf serum and 1% penicillin (100 U/mL)-streptomycin (100 μg/mL) in a humidified 5% CO2 atmosphere at 37 °C.
(§2) The cytotoxicity of samples was performed by NR uptake assay as previously described. This method is based on the ability of viable cells to incorporate and bind the supravital dye NR in the lysosomes. The procedure is cheaper and more sensitive than other cytotoxicity tests. […] Briefly, cells were detached by treatment with 0.25% trypsin/EDTA (Invitrogen) and an aliquot of 1 × 10^4 cells was placed in each well of a 96-well cell culture plate […]. The cells were allowed to attach overnight and subsequently treated with different concentrations of the 14 compounds. Each of the studied samples was immediately added in varying concentrations in additional 100 μL of culture medium to obtain a total volume of […]/well. After 72 h incubation in humidified 5% CO2 atmosphere at 37 °C, the medium was removed and 200 μL fresh medium containing 50 μg/mL NR was added to each well and incubation continued for an additional 3 h at 37 °C in 5% CO2 atmosphere. The dye medium was then removed and each well was then washed rapidly with 200 μL phosphate buffer saline (PBS) followed by addition of 200 μL of acetic acid-water-ethanol in water (1:49:50). The plates were kept for 15 min at room temperature to extract the dye and then shaken for a few minutes on a GFL 3012 shaker (Gesellschaft für Labortechnik mbH, Burgwedel, Germany). Absorbance was measured on ELx 808 Ultra Microplate Reader (Biotek) equipped with a 540 nm filter. Each assay was done at least three times, with three replicates each. The viability was evaluated based on a comparison with untreated cells. The IC50 values represent the sample’s concentrations required to inhibit 50% of cell proliferation and were calculated from a calibration curve by linear regression using Microsoft Excel.

caspase 9 in MCF-7 cells = test: Caspase-Glo 9 assay; assay type: cell-based, human; conditions: IC50 and 2-fold IC50, 6 h (data not shown)
Description: (§3) Caspases activity in MCF-7 cells was detected using Caspase-Glo 3/7 and Caspase-Glo 9 Assay kits (Promega, Mannheim, Germany) as previously reported. […] Luminescence was measured using an BioTek Synergy™ HT multi-detection microplate reader. Caspase activity was expressed as percentage of the untreated control.

[2] = test system: MCF-7 breast adenocarcinoma cells; test: Neutral red (NR) uptake cytotoxicity assay, MCF-7; assay type: cell-based, human; conditions: for IC50: Homo sapiens, MCF7, 72 h, neutral red assay, 72 h incubation, read-out: IC50 MCF-7; for selectivity index MCF-7: IC50 in CRL2120 normal fibroblasts divided by IC50 in MCF-7
Text: as §1, §2

[3] = test system: Caco2 colorectal adenocarcinoma cells; test: Neutral red (NR) uptake cytotoxicity assay, Caco-2; assay type: cell-based, human; conditions: Homo sapiens, Caco-2; neutral red assay, 72 h incubation
Text: as §1, §2

[4] = Neutral red (NR) uptake cytotoxicity assay, Caco-2; assay type: cell-based, human; conditions: human; IC50 in CRL2120 normal fibroblasts divided by IC50 in Caco-2; read-out: selectivity index Caco-2 (converted)
Text: as §1, §2

[5] = test system: A549 human non-small cell lung cancer (NSCLC) cell line; test: Neutral red (NR) uptake cytotoxicity assay, A549; assay type: cell-based; conditions: for IC50: Homo sapiens, A549, 72 h, neutral red assay, 72 h incubation; for selectivity index A549: IC50 in CRL2120 normal fibroblasts divided by IC50 in A549
Text: as §1
as §2, with “lysosomes.” for “lysosomes. The procedure is cheaper and more sensitive than other cytotoxicity tests.”

[6] = test system: HepG2 hepatocarcinoma cells; test: Neutral red (NR) uptake cytotoxicity assay, HepG2; assay type: cell-based, human; conditions: for IC50: Homo sapiens, HepG2, neutral red assay, 72 h incubation, read-out: IC50 HepG2; for selectivity index HepG2: IC50 in CRL2120 normal fibroblasts divided by IC50 in HepG2
Text: as §1, §2

[7] = test system: caspase 3/7 in MCF-7 cells; test: Caspase-Glo 3/7 assay; assay type: cell-based, human; conditions: IC50 and 2-fold IC50, 6 h (data not shown)
Description: as §3

SMILES	IC50 ([1]; Homo sapiens, 72 h, neutral red assay, 72 h incubation, read-out: IC50 SPC212) [µM]	selectivity index SPC212 [1]	activity of caspase 9 (caspase 9 in MCF-7 cells)	IC50 [2] [µM]	selectivity index MCF-7 [2]	IC50 [3] [µM]	selectivity ratio at 72 h [4]	IC50 [5] [µM]	selectivity index A549 [5]	IC50 [6] [µM]	selectivity index HepG2 [6]	activity of caspase 3/7 [7]
CC1=CC(=O)c2c(O)cccc2C1=O [Compound 4, 5-hydroxy-2-methyl-1,4-naphthalenedione]	0.27 ± 0.01	250.59	no modification	0.06 ± 0.01	1127.67	0.07 ± 0.01	967	1.14 ± 0.02	59.35	1.01 ± 0.08	66.99	no modification
CCCCCCCCCCCCCC1=C(O)C(=O)C=C(O)C1=O [Compound 9, 2,5-dihydroxy-3-tridecyl-2,5-cyclohexadiene-1,4-dione]		41.96	no modification	16.9 ± 4.65	5.62	22.95 ± 0.13	4.15	27.4 ± 1.46	3.48	32.7 ± 0.61	2.91	no modification
